From PubChem BioAssay AID1996
Values after ≈ are worked out from the molar mass of the structure shown.

Conditions: buffer; pH 7.4; 200.0 µM
`COc1ccc(CC(=O)Nc2cc(C)ccc2O)cc1OC` gave a solubility kinetic greater than 45.2 µg/mL.
Work on `Cc1[nH]c2ccccc2c1C(C[N+](=O)[O-])c1cccc(O)c1` (stereo not drawn) yielded a solubility kinetic of 40.1 µg/mL (≈ 135 µM).
In the case of `O=C(COC(=O)c1ccc(F)cc1)NCC1CCCCC1`, the solubility kinetic is reported as 9.4 µg/mL (≈ 32 µM).
With `COc1ccc(C2(O)C(=O)Nc3ccc(C)cc32)cc1OC` (stereo not drawn) the solubility kinetic was greater than 44.9 µg/mL.
Compound `Cc1onc(-c2c(Cl)cccc2Cl)c1C(O)c1ccc(F)cc1` (stereo not drawn) has a solubility kinetic of 42.1 µg/mL (≈ 120 µM).
With `Cc1nc2ccc(C(=O)Nc3ccc(N(C)C)cc3)cc2s1` the solubility kinetic was 4.1 µg/mL (≈ 13.2 µM).
With `Cc1ccc(S(=O)(=O)n2cc(C=O)c3ccccc32)cc1` the solubility kinetic was less than 0.6 µg/mL.
`Cc1oc(-c2ccoc2)nc1CN(CC1CCC(=O)N1)C(C)C` (stereo not drawn) showed a solubility kinetic of 38.8 µg/mL (≈ 122 µM).
`CCCN1CCN(CC(=O)Nc2nnc(CC)s2)CC1` showed a solubility kinetic greater than 44.6 µg/mL.
`Cc1ccc(-c2csc(N=C(N)N)n2)c(C)c1` gave a solubility kinetic of 8 µg/mL (≈ 32.5 µM).
With `O=C(O)c1ccccc1-c1ccccc1C(=O)Nc1nc2ccccc2s1` the solubility kinetic was greater than 56.2 µg/mL.
`CCN(CC)CCCNC(=O)Cn1ccc2ccccc2c1=O` gave a solubility kinetic greater than 47.3 µg/mL.
`O=[N+]([O-])c1cccc(N=Cc2sc3ccccc3c2O)c1` gave a solubility kinetic of less than 0.3 µg/mL.
In the case of `Cc1cc(Cl)ccc1NC(=O)C1COc2ccccc2O1` (stereo not drawn), the solubility kinetic is reported as 18.1 µg/mL (≈ 59.6 µM).
Compound `COc1ccc(C2=NOC(C(=O)Nc3cc(C)on3)C2)cc1OC` (stereo not drawn) has a solubility kinetic greater than 49.7 µg/mL.
In the case of `CS(=O)(=O)c1ccc([C@@H](O)[C@@H](CO)NC(=O)C(Cl)Cl)cc1`, the solubility kinetic is reported as greater than 53.4 µg/mL.
`CC(C)(C)C1CCC(OC(=O)CN2CCCCC2)CC1` (stereo not drawn) gave a solubility kinetic of 2.4 µg/mL (≈ 8.53 µM).
With `O=C(CCCc1c[nH]c2ccccc12)Nc1ncccc1O` the solubility kinetic was 35.9 µg/mL (≈ 122 µM).
`Cn1ccc(=S)c2ccccc21` gave a solubility kinetic of 25.2 µg/mL (≈ 144 µM).
With `CC(=O)C1C(c2ccc(Cl)cc2)c2c(noc2C)CC1(C)O` (stereo not drawn) the solubility kinetic was greater than 48 µg/mL.
`Cc1cccc(Nc2ncccc2C(=O)O)c1C` showed a solubility kinetic greater than 36.3 µg/mL.
`NS(=O)(=O)c1cccc(NC(=O)CN2CCN(S(=O)(=O)c3ccc4c(c3)OCCO4)CC2)c1` showed a solubility kinetic greater than 74.5 µg/mL.
In the case of `Brc1cccc(CNCc2ccncc2)c1`, the solubility kinetic is reported as greater than 41.6 µg/mL.
With `COC(=O)c1c(SCC(=O)Nc2ccc(C)cc2)nc(=O)[nH]c1C` the solubility kinetic was 8.4 µg/mL (≈ 24.2 µM).
For `Clc1cccc(-c2nc(NCC3CCCO3)c3ccccc3n2)c1` (stereo not drawn), the solubility kinetic was 1.2 µg/mL (≈ 3.53 µM).
Work on `O=C(O)C1CC=C(Cl)CC1C(=O)NC1CCCCC1` (stereo not drawn) yielded a solubility kinetic greater than 42.9 µg/mL.
`c1ccc2nc3ccccc3nc2c1` gave a solubility kinetic of 12.3 µg/mL (≈ 68.3 µM).
`Clc1nc(-c2ccccc2)c2ccccc2n1` gave a solubility kinetic of 17.6 µg/mL (≈ 73.1 µM).
`COC(=O)C1=C(C)Nc2nc3ccccc3n2C1c1ccccc1F` (stereo not drawn) showed a solubility kinetic of 0.3 µg/mL (≈ 0.889 µM).
In the case of `O=C(CCc1ccccc1)N1CCCC(Nc2ccc(F)cc2)C1` (stereo not drawn), the solubility kinetic is reported as 41.4 µg/mL (≈ 127 µM).
Work on `Nc1ccccc1Sc1ccc(C(F)(F)F)cc1[N+](=O)[O-]` yielded a solubility kinetic of 5.6 µg/mL (≈ 17.8 µM).
In the case of `CCOc1ccccc1/C=C\c1nc(O)c([N+](=O)[O-])c(=O)[nH]1`, the solubility kinetic is reported as greater than 45.5 µg/mL.
For `O=C(COC(=O)C1=COCCO1)Nc1cc(C(F)(F)F)ccc1Cl`, the solubility kinetic was 12.4 µg/mL (≈ 33.9 µM).
`CC(C)C(=O)Nc1cc2c3c(c1)CCC(=O)N3CCC2` gave a solubility kinetic greater than 40.9 µg/mL.
Compound `Cc1ccc(N2C(=O)C3CCCN3C2=S)cc1` (stereo not drawn) has a solubility kinetic of 34.2 µg/mL (≈ 139 µM).
With `CC(=Nc1ccc(F)cc1)c1c(O)n(C)c(=O)[nH]c1=O` the solubility kinetic was 7 µg/mL (≈ 25.2 µM).
`COc1ccc(-c2cc(-c3ccccc3)c(C#N)c(SCC(=O)O)n2)cc1` gave a solubility kinetic greater than 56.5 µg/mL.
`CCN(Cc1ccncc1)C(=O)c1ccc2c(c1)S(=O)(=O)c1ccccc1C2=O` gave a solubility kinetic of 42 µg/mL (≈ 103 µM).
`COc1ccc(CCNC(=O)CCNC(=O)c2ccco2)cc1OC` gave a solubility kinetic of 48.7 µg/mL (≈ 141 µM).
`Nc1nc(Cl)cc(Oc2ccccc2F)n1` showed a solubility kinetic of 15.6 µg/mL (≈ 65.1 µM).
Compound `Cc1ccc(N2C(=O)C(Cl)=C(N3CCOCC3)C2=O)c(C)c1` has a solubility kinetic of 36.3 µg/mL (≈ 113 µM).
`O=C(COc1ccccc1[N+](=O)[O-])NCC1COc2ccccc2O1` (stereo not drawn) gave a solubility kinetic of 24.2 µg/mL (≈ 70.3 µM).
In the case of `COCCNC(=O)C(OC(=O)C1=Cc2ccccc2OC1)C(C)C` (stereo not drawn), the solubility kinetic is reported as greater than 50 µg/mL.
For `COc1cc(/C=C/c2ccc3cccc(O)c3n2)cc(OC)c1OC`, the solubility kinetic was less than 0.7 µg/mL.
Work on `COc1ccc([N+](=O)[O-])c(OC)c1C(=O)Nc1ccc(F)cc1F` yielded a solubility kinetic of 33.9 µg/mL (≈ 100 µM).
Compound `Nc1nonc1OCCN1CCN(c2ccc([N+](=O)[O-])c3cccnc23)CC1` has a solubility kinetic of 9.1 µg/mL (≈ 23.6 µM).
For `CC(=O)N1CCC(O)(c2ccc3c(c2)OCO3)CC1`, the solubility kinetic was 37.1 µg/mL (≈ 141 µM).
`CCOC(=O)N1CCN(c2nc3c(C)cccn3c(=O)c2C=O)CC1` showed a solubility kinetic greater than 51.7 µg/mL.
Compound `CC1CN(S(=O)(=O)c2ccc(C(=O)NC3CCCCC3)cc2)CC(C)O1` (stereo not drawn) has a solubility kinetic of 45.8 µg/mL (≈ 120 µM).
Work on `CCc1cc2cc(C)ccc2nc1SCC(=O)NC1CCCC1` yielded a solubility kinetic of less than 0.4 µg/mL.
Work on `CCS(=O)(=O)N1CCC(C(=O)O)CC1` yielded a solubility kinetic greater than 33.2 µg/mL.
`O=C(OCC(=O)N1CCCC1)c1cc(F)c(F)cc1Cl` showed a solubility kinetic of 45.3 µg/mL (≈ 149 µM).
`CCn1ccnc1C(O)(c1ccccc1)c1ccccc1` showed a solubility kinetic greater than 41.8 µg/mL.
For `CCN(C(=O)COc1ccc(C)cc1OC)c1cccc2ccccc12`, the solubility kinetic was 33.7 µg/mL (≈ 96.4 µM).
`CCOc1ccc(N2C(=O)NC(=O)/C(=C\c3ccccc3[N+](=O)[O-])C2=O)cc1` showed a solubility kinetic greater than 57.2 µg/mL.
For `N#C/C(=C\c1cccnc1)C(=O)Nc1ccc(S(N)(=O)=O)cc1`, the solubility kinetic was 36.6 µg/mL (≈ 111 µM).
With `CC(C)OP(=O)(OC(C)C)C(Nc1ccc(C(=O)O)cc1)c1ccccc1` (stereo not drawn) the solubility kinetic was greater than 58.7 µg/mL.
`Cc1nc(/N=C(\N)NC(=O)NC2CCCCC2)nc2ccccc12` showed a solubility kinetic of 12.7 µg/mL (≈ 38.9 µM).
